Test results taken from US12319679B2, “Morpholinyl, piperazinyl, oxazepanyl and diazepanyl O-glycoprotein-2-acetamido-2-deoxy-3-d-glucopyranosidase inhibitors” (BIOGEN MA INC., priority 2018, dated 2025).

The molecules below were run against T1, Recombinant full length human OGA enzyme (Homo sapiens, UniProt O60502) (assay: OGA Enzyme Inhibition Biochemical Assay). Details: 1 nM OGA, 100 μM 4-MUGlcNAc (Km), pH 6.4, 90 minutes at room temperature; 10-point dose-response starting from 20 μM.
T1 construct: Recombinant full length human OGA enzyme was purchased from Origene; purchased Origene
T1 sequence (O60502 1-916): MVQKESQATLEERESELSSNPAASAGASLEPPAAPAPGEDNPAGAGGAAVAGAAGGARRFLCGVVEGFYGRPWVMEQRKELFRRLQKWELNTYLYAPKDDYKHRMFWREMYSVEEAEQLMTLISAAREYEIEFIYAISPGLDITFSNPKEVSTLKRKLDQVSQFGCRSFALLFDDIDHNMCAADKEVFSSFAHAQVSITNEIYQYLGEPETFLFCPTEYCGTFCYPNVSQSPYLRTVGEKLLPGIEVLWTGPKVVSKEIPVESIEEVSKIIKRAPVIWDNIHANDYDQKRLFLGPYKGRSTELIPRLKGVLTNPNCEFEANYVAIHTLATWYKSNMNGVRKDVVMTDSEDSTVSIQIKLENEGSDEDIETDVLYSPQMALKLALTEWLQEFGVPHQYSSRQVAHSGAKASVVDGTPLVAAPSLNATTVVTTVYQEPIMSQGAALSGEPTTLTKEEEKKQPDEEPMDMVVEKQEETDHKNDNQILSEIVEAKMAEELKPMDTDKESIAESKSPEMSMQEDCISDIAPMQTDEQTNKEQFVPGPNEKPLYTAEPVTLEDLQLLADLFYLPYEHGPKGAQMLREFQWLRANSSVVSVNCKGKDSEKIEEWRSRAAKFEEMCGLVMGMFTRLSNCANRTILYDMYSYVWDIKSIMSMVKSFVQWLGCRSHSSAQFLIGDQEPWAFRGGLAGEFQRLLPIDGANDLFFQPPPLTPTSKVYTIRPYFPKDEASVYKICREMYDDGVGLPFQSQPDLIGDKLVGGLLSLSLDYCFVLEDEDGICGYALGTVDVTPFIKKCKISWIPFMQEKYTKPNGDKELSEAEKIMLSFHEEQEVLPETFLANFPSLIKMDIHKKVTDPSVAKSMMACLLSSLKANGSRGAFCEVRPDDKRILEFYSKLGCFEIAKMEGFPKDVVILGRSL
Description: OGA Enzyme Inhibition Biochemical Assay
Recombinant full length human OGA enzyme was purchased from Origene. 4-MUGlCNAc substrate was purchased from Sigma. All other reagents were purchased from Sigma or Fisher. Assay buffer consists of the McIlvaine buffer system, pH 6.4 (0.2M Na2HPO4 mixed with 0.1M citric acid) and 0.01% BSA. Reactions consist of 1 nM OGA, 100 μM 4-MUGlcNAc (Km), and compound in a final volume of 10 μl. Reactions were incubated for 90 minutes at room temperature and quenched with 40 μl of 3M glycine, pH 10 and read on a Perkin Elmer Envision plate reader (Ex: 355 nm/Em: 460 nm). Compounds were tested with a 10-point dose-response starting from 20 μM with a 4-fold dilution. Data was fit using GraphPad Prism using a 4-paramter fit with variable slope.
Work on CC(=O)Nc1ncc(CN2CCOCC(Cc3cc(C)nc(C)c3)C2)s1 (single isomer, unassigned) [Example 1-43 Peak 1] yielded an IC50 of 19 nM.
Molecule CC(=O)Nc1ncc(CN2CCOCC(Cc3cc(C)nc(C)c3)C2)s1 (single isomer, unassigned) [Example 1-43 Peak 2] has an IC50 of 38 nM.
In the case of CC(=O)Nc1ncc(CN2CCOCC(Cc3ncc(F)cn3)C2)s1 (single isomer, unassigned) [Example 1-45 Peak 1], the IC50 is reported as 1600 nM.
Molecule CC(=O)Nc1ncc(CN2CCOCC(Cc3ncc(F)cn3)C2)s1 (single isomer, unassigned) [Example 1-45 Peak 2] has an IC50 of 14 nM.
COc1cc(CC2COCCN(Cc3cnc(NC(C)=O)s3)C2)ccn1 (single isomer, unassigned) [Example 1-47 Peak 1] was tested, and the IC50 was 1000 nM.
COc1cc(CC2COCCN(Cc3cnc(NC(C)=O)s3)C2)ccn1 (single isomer, unassigned) [Example 1-47 Peak 2] gave an IC50 of 17 nM.
Molecule CC(=O)Nc1ncc(CN2CCNC(Cc3ncc(F)cn3)C2)s1 (single isomer, unassigned) [Example 2-20 Peak 1] has an IC50 of 560 nM.
CC(=O)Nc1ncc(CN2CCNC(Cc3ncc(F)cn3)C2)s1 (single isomer, unassigned) [Example 2-20 Peak 2] was tested, and the IC50 was > 20000 nM.
Molecule COc1cc(CC2CN(Cc3cnc(NC(C)=O)s3)CCN2)ccn1 (single isomer, unassigned) [Example 2-22 Peak 1] has an IC50 of 18000 nM.
In the case of COc1cc(CC2CN(Cc3cnc(NC(C)=O)s3)CCN2)ccn1 (single isomer, unassigned) [Example 2-22 Peak 2], the IC50 is reported as 850 nM.
In the case of COc1cc(CC2CN(Cc3cnc(NC(C)=O)s3)CCN2)ccc1F (single isomer, unassigned) [Example 4-6 Peak 1], the IC50 is reported as 11000 nM.
COc1cc(CC2CN(Cc3cnc(NC(C)=O)s3)CCN2)ccc1F (single isomer, unassigned) [Example 4-6 Peak 2] was tested, and the IC50 was 4100 nM.
CC(=O)Nc1ncc(CN2CCNC(Cc3ccnc(C)c3)C2)s1 (single isomer, unassigned) [Example 4-8 Peak 1] was tested, and the IC50 was 6700 nM.
For CC(=O)Nc1ncc(CN2CCNC(Cc3ccnc(C)c3)C2)s1 (single isomer, unassigned) [Example 4-8 Peak 2], the IC50 was 490 nM.
In the case of COc1cc(CC2CN(Cc3cnc(NC(C)=O)s3)CCN2C)ccn1 (single isomer, unassigned) [Example 4-12 Peak 1], the IC50 is reported as 950 nM.
For COc1cc(CC2CN(Cc3cnc(NC(C)=O)s3)CCN2C)ccn1 (single isomer, unassigned) [Example 4-12 Peak 2], the IC50 was > 20000 nM.
For CC(=O)Nc1ncc(CN2CCNC(Cc3ccc(C)nc3)C2)s1 (single isomer, unassigned) [Example 4-14 Peak 1], the IC50 was > 20000 nM.
CC(=O)Nc1ncc(CN2CCNC(Cc3ccc(C)nc3)C2)s1 (single isomer, unassigned) [Example 4-14 Peak 2] was tested, and the IC50 was 4400 nM.
COc1nccc(CC2CN(Cc3cnc(NC(C)=O)s3)CCN2)c1F (single isomer, unassigned) [Example 4-18 Peak 1] was tested, and the IC50 was 14000 nM.
For COc1nccc(CC2CN(Cc3cnc(NC(C)=O)s3)CCN2)c1F (single isomer, unassigned) [Example 4-18 Peak 2], the IC50 was 1500 nM.
Molecule CC(=O)Nc1ncc(CN2CCO[C@H](Cc3ncc(F)cn3)C2)s1 [Example 1-1, (R)—N-(5-((2-((5-fluoropyrimidin-2-yl)methyl)morpholino)methyl)thiazol-2-yl)acetamide] has an IC50 of 16 nM.
CC(=O)Nc1ncc(CN2CCO[C@@H](Cc3ncc(F)cn3)C2)s1 [Example 1-2, (S)—N-(5-((2-((5-fluoropyrimidin-2-yl)methyl)morpholino)methyl)thiazol-2-yl)acetamide] gave an IC50 of 4400 nM.
COc1cc(C[C@@H]2CN(Cc3cnc(NC(C)=O)s3)CCO2)ccn1 [Example 1-3, (R)—N-(5-((2-((2-methoxypyridin-4-yl)methyl)morpholino)methyl)thiazol-2-yl)acetamide] gave an IC50 of 43 nM.
With COc1cc(C[C@H]2CN(Cc3cnc(NC(C)=O)s3)CCO2)ccn1 [Example 1-4, (S)—N-(5-((2-((2-methoxypyridin-4-yl)methyl)morpholino)methyl)thiazol-2-yl)acetamide] the IC50 was 11000 nM.
Work on COc1nccc(C[C@@H]2CN(Cc3cnc(NC(C)=O)s3)CCO2)c1C [Example 1-5, (R)—N-(5-((2-((2-methoxy-3-methylpyridin-4-yl)methyl)morpholino)methyl)thiazol-2-yl)acetamide] yielded an IC50 of 61 nM.
Molecule COc1cc(C[C@@H]2CN(Cc3cnc(NC(C)=O)s3)CCO2)ccc1F [Example 1-6, (R)—N-(5-((2-(4-fluoro-3-methoxybenzyl)morpholino)methyl)thiazol-2-yl)acetamide] has an IC50 of 100 nM.
With COc1nccc(C[C@@H]2CN(Cc3cnc(NC(C)=O)s3)CCO2)n1 [Example 1-7, (R)—N-(5-((2-((2-methoxypyrimidin-4-yl)methyl)morpholino)methyl)thiazol-2-yl)acetamide] the IC50 was 110 nM.
For COc1cc(C[C@@H]2CN(Cc3cnc(NC(C)=O)s3)CCO2)ncn1 [Example 1-8, (R)—N-(5-((2-((6-methoxypyrimidin-4-yl)methyl)morpholino)methyl)thiazol-2-yl)acetamide], the IC50 was 130 nM.
Molecule CC(=O)Nc1ncc(CN2CCO[C@H](Cc3ccnc(C(F)(F)F)n3)C2)s1 [Example 1-9] has an IC50 of 1500 nM.
In the case of CC(=O)Nc1ncc(CN2CCO[C@H](Cc3ccnc(OCC(F)(F)F)c3)C2)s1 [Example 1-10], the IC50 is reported as 160 nM.
In the case of CCOc1cc(C[C@@H]2CN(Cc3cnc(NC(C)=O)s3)CCO2)ccn1 [Example 1-11, (R)—N-(5-((2-((2-ethoxypyridin-4-yl)methyl)morpholino)methyl)thiazol-2-yl)acetamide], the IC50 is reported as 130 nM.
Work on CC(=O)Nc1ncc(CN2CCO[C@H](Cc3ccnc(OC(C)C)c3)C2)s1 [Example 1-12, (R)—N-(5-((2-((2-isopropoxypyridin-4-yl)methyl)morpholino)methyl)thiazol-2-yl)acetamide] yielded an IC50 of 270 nM.
Work on CC(=O)Nc1ncc(CN2CCO[C@H](Cc3ccnc(C(F)F)c3)C2)s1 [Example 1-13] yielded an IC50 of 260 nM.
For CC(=O)Nc1ncc(CN2CCO[C@H](Cc3ccnc(C)n3)C2)s1 [Example 1-14, (R)—N-(5-((2-((2-methylpyrimidin-4-yl)methyl)morpholino)methyl)thiazol-2-yl)acetamide], the IC50 was 180 nM.
COc1nccc(C[C@@H]2CN(Cc3cnc(NC(C)=O)s3)CCO2)c1F [Example 1-15, (R)—N-(5-((2-((3-fluoro-2-methoxypyridin-4-yl)methyl)morpholino)methyl)thiazol-2-yl)acetamide] gave an IC50 of 56 nM.
In the case of CC(=O)Nc1ncc(CN2CCO[C@H](Cc3ccc(C)cn3)C2)s1 [Example 1-16, (R)—N-(5-((2-((5-methylpyridin-2-yl)methyl)morpholino)methyl)thiazol-2-yl)acetamide], the IC50 is reported as 160 nM.
CC(=O)Nc1ncc(CN2CCO[C@H](Cc3ccnc(OC(F)F)c3)C2)s1 [Example 1-17, (R)—N-(5-((2-((2-(difluoromethoxy)pyridin-4-yl)methyl)morpholino)methyl)thiazol-2-yl)acetamide] gave an IC50 of 136 nM.
For CC(=O)Nc1ncc(CN2CCO[C@H](Cc3cc(C)c(F)cn3)C2)s1 [Example 1-18, (R)—N-(5-((2-((5-fluoro-4-methylpyridin-2-yl)methyl)morpholino)methyl)thiazol-2-yl)acetamide], the IC50 was 200 nM.
With CC(=O)Nc1ncc(CN2CCO[C@H](Cc3ccc(C)nc3)C2)s1 [Example 1-19, (R)—N-(5-((2-((6-methylpyridin-3-yl)methyl)morpholino)methyl)thiazol-2-yl)acetamide] the IC50 was 110 nM.
With CC(=O)Nc1ncc(CN2CCO[C@H](Cc3ccnc(C)c3)C2)s1 [Example 1-20, (R)—N-(5-((2-((2-methylpyridin-4-yl)methyl)morpholino)methyl)thiazol-2-yl)acetamide] the IC50 was 84 nM.
With CC(=O)Nc1ncc(CN2CCO[C@H](Cc3cc(C)nc(C)c3)C2)s1 [Example 1-21, (R)—N-(5-((2-((2,6-dimethylpyridin-4-yl)methyl)morpholino)methyl)thiazol-2-yl)acetamide] the IC50 was 38 nM.
Work on CC(=O)Nc1ncc(CN2C[C@@H](Cc3ncc(F)cn3)OC[C@@H]2C)s1 [Example 1-26] yielded an IC50 of 5.1 nM.
